Laboratory results: patent US20250295648A1 (priority 2024, published 2025)

Test system: L-DOPA-induced dyskinesia in Parkinson's disease patients
Assay: Unified Dyskinesia Rating Scale (UDysRS) after 150% L-DOPA challenge
Details: for UDysRS Part 3+4 score, change from baseline: PPS
[1] = 5 patients co-treated with amantadine
[2] = Full analysis set, Visit 2 Baseline
[3] = Full analysis set, Visit 6 Clinic Efficacy Visit
[4] = Full analysis set, Visit 7 Clinic Efficacy Visit
[5] = Full analysis set, average of assessment sessions Part 3 and Part 4, Visit 2 Baseline
[6] = Full analysis set, average of assessment sessions Part 3 and Part 4, Visit 6 Clinic Efficacy Visit
[7] = Full analysis set, average of assessment sessions Part 3 and Part 4, Visit 7 Clinic Efficacy Visit
[8] = Full analysis set, average of assessment sessions, highest item score, Visit 2 Baseline
[9] = Full analysis set, average of assessment sessions, highest item score, Visit 6 Clinic Efficacy Visit
[10] = Full analysis set, average of assessment sessions, highest item score, Visit 7 Clinic Efficacy Visit
[11] = Full analysis set, most severe session, highest item score, Visit 2 Baseline
[12] = Full analysis set, most severe session, highest item score, Visit 6 Clinic Efficacy Visit
[13] = Full analysis set, most severe session, highest item score, Visit 7 Clinic Efficacy Visit
[14] = Visit 2 Baseline, per protocol analysis set, N = 15

Protocol: Patients were rated for dyskinesia at baseline and on days 28 (at end of up-titration period) and 42 (end of stable dosing period). Because the level of dyskinesia experienced by patients can vary over time, they were given 150% (i.e., 1.5×) of their regular L-DOPA dose (up to a maximum of 250 mg) as a challenge 30 min before each dyskinesia assessment to improve comparability between patients and between visits. Patients were filmed 30, 60 and 90 min after dosing with L-DOPA (˜5 min of filming each time). LID was assessed using the Unified Dyskinesia Rating Scale (UDysRS). Changes from baseline are shown for total score (i.e., Parts 1 to 4), for total objective score (i.e., Parts 3+4), and for the sum of Part 3 objective impairment assessment scores. Because objective LID assessment was carried out at 3 time-points (30, 60 and 90 min) following L-DOPA challenge, the above parameters were analyzed based on the most severe of the three scores as well as on the average score of the 3 time points.
The patient took 150% of their normal L-DOPA dose 30 minutes prior to the start of efficacy assessments (UDysRS) at Day 1 (Visit 2), Day 28 (Visit 6) and Day 42 (Visit 7).
The UDysRS is a rating instrument designed to assess the core features of dyskinesia in Parkinson's Disease. The UDysRS consists of 4 parts: • r. Part I, historical disability with regard to the patient's perceptions of the impact on activities of ADL of on-dyskinesia. • s. Part II, historical disability with regard to the patient's perceptions of the impact on ADL of off-dystonia. • t. Part III, objective impairment, which assesses severity of dyskinesia, affected body parts, and type of impairment (choreic vs. dystonic). • u. Part IV, objective disability, based on an evaluation of Part III activities.
Each item in the UDysRS is scored from 0 to 4, with a possible maximum total score of 104.
The UDysRS assessment would be performed at baseline (Day 1, Visit 2), Day 28 and Day 42 (Visits 6 and 7) starting approximately 30 minutes after the L-DOPA challenge on these days.
The data for all 3 assessments performed at each visit would be entered in the eCRF and the Investigator will highlight which of the assessments, corresponding to the assessment where the patient had most severe dyskinesia, that would be used in the descriptive summaries of data.
Change from baseline in the UDysRS total score to Visit 6 (Day 28) and Visit 7 (Day 42) respectively would be summarized using descriptive statistics. […] The same analysis would be done for UDysRS total objective score Part III and IV only.
The baseline value of the dependent variable has been included in the model as a continuous covariate.

Cc1ccc(CNCC2(F)CCN(C(=O)c3ccc(F)c(Cl)c3)CC2)nc1 [NLX-112, (3-chloro-4-fluoro-phenyl)-[4-fluoro-4-{[(5-methyl-pyridin-2-ylmethyl)-amino]-methyl}piperidin-1-yl]methanone]
UDysRS Part 3 + 4, mean change from baseline [1]: −4.4 | UDysRS Total, mean change from baseline [1]: −4.0 | UDysRS Part 3+4 score, change from baseline (Day 28, average of 3 assessments (30, 60, 90 min), p=0.0065): −2.49 points | UDysRS total score (Parts 1-4), change from baseline (Day 28, most severe assessment, PPS n=15, p=0.0281 vs baseline): −4.1 points | UDysRS Part 3+4 score, change from baseline (Day 28, most severe assessment, not statistically significant): −1.7 points | UDysRS sum of Part 3 items, average of all 3 assessments, vs baseline (Day 28 and Day 42, within NLX-112 group): significant reduction | UDysRS total score or total objective (Parts 3 and 4) score, change from baseline, NLX-112 vs placebo (Day 28 or Day 42): no significant differences | UDysRS Part 3+4 score, change from baseline (Day 42, average of 3 assessments (30, 60, 90 min), p=0.0005): −3.31 points | UDysRS total score (Parts 1-4), change from baseline (Day 42, most severe assessment, PPS n=15, p=0.0016 vs baseline): −6.3 points | UDysRS Part 3+4 score, change from baseline (Day 42, most severe assessment, p=0.0038 vs baseline): −3.1 points | UDysRS Parts 1, 2, 3, and 4 most severe, collected value, mean [2]: 31.8 | UDysRS Parts 1, 2, 3, and 4 most severe, collected value, median [2]: 31.0 | UDysRS Parts 1, 2, 3, and 4 most severe, absolute change from baseline, mean [3]: −4.1 | UDysRS Parts 1, 2, 3, and 4 most severe, absolute change from baseline, median [3]: −2.0 | UDysRS Parts 1, 2, 3, and 4 most severe, collected value, mean [3]: 27.5 | UDysRS Parts 1, 2, 3, and 4 most severe, collected value, median [3]: 28.0 | UDysRS Parts 1, 2, 3, and 4 most severe, relative change from baseline (%), mean [3]: −10.2% | UDysRS Parts 1, 2, 3, and 4 most severe, relative change from baseline (%), median [3]: −6.45% | UDysRS Parts 1, 2, 3, and 4 most severe, absolute change from baseline, mean [4]: −6.3 | UDysRS Parts 1, 2, 3, and 4 most severe, absolute change from baseline, median [4]: −8.0 | UDysRS Parts 1, 2, 3, and 4 most severe, collected value, mean [4]: 25.3 | UDysRS Parts 1, 2, 3, and 4 most severe, collected value, median [4]: 24.0 | UDysRS Parts 1, 2, 3, and 4 most severe, relative change from baseline (%), mean [4]: −19.0% | UDysRS Parts 1, 2, 3, and 4 most severe, relative change from baseline (%), median [4]: −25.8% | UDysRS Parts 1, 2, 3, and 4 average, collected value, mean [5]: 30.43 | UDysRS Parts 1, 2, 3, and 4 average, collected value, median [5]: 29.67 | UDysRS Parts 1, 2, 3, and 4 average, absolute change from baseline, mean [6]: −4.82 | UDysRS Parts 1, 2, 3, and 4 average, absolute change from baseline, median [6]: −3.00 | UDysRS Parts 1, 2, 3, and 4 average, collected value, mean [6]: 25.33 | UDysRS Parts 1, 2, 3, and 4 average, collected value, median [6]: 25.33 | UDysRS Parts 1, 2, 3, and 4 average, relative change from baseline (%), mean [6]: −9.33% | UDysRS Parts 1, 2, 3, and 4 average, relative change from baseline (%), median [6]: −10.6% | UDysRS Parts 1, 2, 3, and 4 average, absolute change from baseline, mean [7]: −6.51 | UDysRS Parts 1, 2, 3, and 4 average, absolute change from baseline, median [7]: −7.67 | UDysRS Parts 1, 2, 3, and 4 average, collected value, mean [7]: 23.64 | UDysRS Parts 1, 2, 3, and 4 average, collected value, median [7]: 23.00 | UDysRS Parts 1, 2, 3, and 4 average, relative change from baseline (%), mean [7]: −19.5% | UDysRS Parts 1, 2, 3, and 4 average, relative change from baseline (%), median [7]: −21.9% | UDysRS Parts 3 and 4 average, collected value, mean [8]: 13.98 | UDysRS Parts 3 and 4 average, collected value, median [8]: 13.17 | UDysRS Parts 3 and 4 average, absolute change from baseline, mean [9]: −2.49 | UDysRS Parts 3 and 4 average, absolute change from baseline, median [9]: −1.67 | UDysRS Parts 3 and 4 average, collected value, mean [9]: 11.60 | UDysRS Parts 3 and 4 average, collected value, median [9]: 10.33 | UDysRS Parts 3 and 4 average, relative change from baseline (%), mean [9]: −17.3% | UDysRS Parts 3 and 4 average, relative change from baseline (%), median [9]: −20.0% | UDysRS Parts 3 and 4 average, absolute change from baseline, mean [10]: −3.31 | UDysRS Parts 3 and 4 average, absolute change from baseline, median [10]: −3.33 | UDysRS Parts 3 and 4 average, collected value, mean [10]: 10.78 | UDysRS Parts 3 and 4 average, collected value, median [10]: 9.67 | UDysRS Parts 3 and 4 average, relative change from baseline (%), mean [10]: −25.3% | UDysRS Parts 3 and 4 average, relative change from baseline (%), median [10]: −31.5% | UDysRS Parts 3 and 4 most severe, collected value, mean [11]: 15.3 | UDysRS Parts 3 and 4 most severe, collected value, median [11]: 13.5 | UDysRS Parts 3 and 4 most severe, absolute change from baseline, mean [12]: −1.7 | UDysRS Parts 3 and 4 most severe, absolute change from baseline, median [12]: −1.0 | UDysRS Parts 3 and 4 most severe, collected value, mean [12]: 13.8 | UDysRS Parts 3 and 4 most severe, collected value, median [12]: 12.0 | UDysRS Parts 3 and 4 most severe, relative change from baseline (%), mean [12]: −15.8% | UDysRS Parts 3 and 4 most severe, relative change from baseline (%), median [12]: −8.33% | UDysRS Parts 3 and 4 most severe, absolute change from baseline, mean [13]: −3.1 | UDysRS Parts 3 and 4 most severe, absolute change from baseline, median [13]: −4.0 | UDysRS Parts 3 and 4 most severe, collected value, mean [13]: 12.4 | UDysRS Parts 3 and 4 most severe, collected value, median [13]: 11.0 | UDysRS Parts 3 and 4 most severe, relative change from baseline (%), mean [13]: −21.0% | UDysRS Parts 3 and 4 most severe, relative change from baseline (%), median [13]: −31.6% | UDysRS Parts 1, 2, 3, and 4 average, collected value, mean [14]: 30.16 | UDysRS Parts 1, 2, 3, and 4 average, collected value, median [14]: 29.33 | UDysRS Parts 1, 2, 3, and 4 most severe, collected value, mean [14]: 31.6 | UDysRS Parts 1, 2, 3, and 4 most severe, collected value, median [14]: 31.0 | UDysRS Parts 3 and 4 average, collected value, mean [14]: 14.09 | UDysRS Parts 3 and 4 average, collected value, median [14]: 13.00 | UDysRS Parts 3 and 4 most severe, collected value, mean [14]: 15.5
